The numbers were not newly measured in US6977247B2, “Sequential therapy comprising a 20(S)-camptothecin and a pyrimidine base analog” (SuperGen, Inc., priority 2002, dated 2005), which cites them from elsewhere.

The test system of data set [1] is human colon cancer xenografts. Particulars: mouse, in vivo.
In data set [2] the test system is various types of cancer, including primary cancer and metastasis. The conditions noted are these: human, in vivo.
For data set [3] the following is noted: administered intravenously; studies abandoned.

Take `CC[C@@]1(O)C(=O)OCc2c1cc1n(c2=O)Cc2cc3c(N)cccc3nc2-1` [9AC, 9-Amino-20(S)-Camptothecin]: in data set [1], the “anticancer activity against human colon cancer xenografts” value was “high anticancer activity”.
As for `CC[C@@]1(O)C(=O)OCc2c1cc1n(c2=O)Cc2cc3c([N+](=O)[O-])cccc3nc2-1` [9NC, 9-nitrocamptothecin], in data set [2], the “tumors known to regress after exposure” value is “breast carcinoma, ovarian carcinoma, cholangiocarcinoma, monomyelocytic leukemia, and pancreatic carcinoma”. For the same compound, the “growth of human tumor xenografts” value with human tumor xenografts (immunodeficient nude mice) is listed as “inhibited the growth”. Further, the “regression of human tumors established as xenografts” value with human tumor xenografts (nude mice) was “induced regression”.
Take `CC[C@@]1(O)C(=O)OCc2c1cc1n(c2=O)Cc2cc3cc4c(cc3nc2-1)OCO4` [10, 2011 MD, 10, 2011-Methylendioxy-20(S)-Camptothecin]: the “anticancer activity against human colon cancer xenografts” value in data set [1] is on record as “high anticancer activity”.
On to `CC[C@@](O)(C(=O)[O-])c1cc2n(c(=O)c1CO)Cc1cc3ccccc3nc1-2.[Na+]` [20(S)-camptothecin Na^+, sodium salt of 20(S)-camptothecin], for which, in data set [3], the “potency in clinical trials” value is “low potency” and the “toxicity in clinical trials” value is “high toxicity”.
In the case of `CC[C@@]1(O)C(=O)OCc2c1cc1n(c2=O)Cc2cc3ccccc3nc2-1` [20(S)-camptothecin], the solubility in water result is “insoluble in water”.
